One data set is described as follows: in vitro. As to conditions: human, hela cells, % viability.
As for `O=C(CSc1nnc(-c2cc(Br)ccc2O)[nH]1)NCCc1ccccc1` [CBK269007], the viability at 28.5 h, 10 µM stood at 85.8%.
Still for that read-out and setting: as for `Nc1nc(CN2CCN(c3ccccc3F)CC2)nc(N2CCCc3ccccc32)n1` [CBK270234], the figure is 87.4%.
Still for that read-out and setting: the same measure for `COc1cccc(Oc2cnc(-c3ccc(C(=O)N(C)C)cc3)c(N)n2)c1` [CBK145185]: 95.5%; for `CC(C)Oc1ncc(C(=O)Nc2cnn(CC(N)=O)c2)cc1Cl` [CBK306311]: 90.4%; for `CN1C(=O)COc2ccccc2CCCC[C@@H]2[C@H]1CCCN2C(=O)CCn1ccnc1` [CBK292150]: 96.6%.
As for `COc1ccc(C2=NNC(=O)C(c3ccc(OC)cc3)C2)cc1` (centres unmarked) [CBK287908], the viability at 28.5 h, 10 µM stood at 99.7%.
Still for that read-out and setting: as for `Clc1ccc(CN2CCN(c3nccnc3OCCN3CCOCC3)CC2)cc1Cl` [CBK082884T], the figure is 96.7%.
Same read-out and setting: the same measure for `COc1ccc(C(O)Cc2nc3ccccc3n2Cc2ccc(Cl)cc2)cc1` (centres unmarked) [CBK262143]: 86.2%.
For the molecule `O=C(O)CNC(=O)CNC(=O)C12CC3CC(CC(C3)C1)C2` [CBK287083], the viability at 28.5 h, 10 µM came out at 81.4%.
On the same count and under the same terms, as for `COc1ccc(C(=O)Nc2nc3ccc(NC(C)=O)cc3s2)cc1OC` [CBK287311], the figure is 101%; as for `COCCN1C(=O)c2ccc(C(=O)Nc3ccc(O)c(C(=O)O)c3)cc2C1=O` [CBK268344], 102%.
Same read-out and setting: as for `COc1ccc(Nc2nc(-c3ccc(F)cc3)cs2)c(OC)c1` [CBK131705], the figure is 87.5%; as for `CCOC(=O)COc1cccc(/C=C2/SC(=S)N(c3cccc(C(=O)O)c3)C2=O)c1` [CBK265589], 98.3%; as for `Cn1c(Cc2cccs2)nnc1SCC(=O)c1c[nH]c2ccccc12` [CBK268534], 102%.
The same measure, in the same setting: as for `Brc1cnc(OCc2ccccc2)nc1OCc1ccccc1` [CBK261274], the figure is 101%; as for `CCCNC(=O)N1CCN2C(=O)c3cc(-c4ccccc4F)ccc3NC(=O)[C@@H]2C1` [CBK289595], 95.5%.
On to `CCOC(=O)Cc1csc(SC(C)C(=O)N2CCc3ccccc3C2)n1` (centres unmarked) [CBK305586], for which the viability at 28.5 h, 10 µM worked out at 99.9%.
Still for that read-out and setting: the same measure for `O=C(NCc1ccco1)c1cc(Br)cnc1N1CCOCC1` [CBK076268]: 94.6%; for `COc1cccc(CC(=O)Nc2nc(Cc3n[nH]c(=S)n3C)cs2)c1` [CBK296634]: 98.5%.
Consider `CC1(C)CC(=O)C=C(NCC2CCNCC2)C1` [CBK027580], for which the viability at 28.5 h, 10 µM turned out to be 87.9%.
The same measure, in the same setting: as for `CCCC(=O)Nc1ccc(OCCOC(C)(C)C)c(C(C)=O)c1` [CBK305691], the figure is 79.8%; as for `Cc1cc(Cl)cc(Cl)c1OCCCc1c(C)n[nH]c1C` [CBK025733C], 76.9%; as for `N#Cc1cc2c(=O)n(-c3ccccn3)ccc2[nH]c1=O` [CBK288119], 94.5%.
On the same count and under the same terms, as for `COc1cccc(-c2noc(C3CCN(CCc4ccccc4)CC3)n2)c1` [CBK051455], the figure is 99.7%.
On the same count and under the same terms, as for `O=C(CC1Nc2ccccc2NC1=O)Nc1ccc(F)c(Cl)c1` (centres unmarked) [CBK266381], the figure is 97%; as for `CCOC(=O)N1CCN(CC(=O)N2c3ccccc3CCc3ccccc32)CC1` [CBK268744G], 111%; as for `CCc1nnc(NS(=O)(=O)c2ccc(NCc3ccccc3O)cc2)s1` [CBK085149], 113%.
Regarding `O=C(c1ccc2c(c1)OCCO2)N1CCN(c2ncccn2)CC1` [CBK144519], the viability at 28.5 h, 10 µM came to 89.5%.
On the same count and under the same terms, as for `Cc1cc(COc2nccnc2N2CCN(CCCO)CC2)no1` [CBK084197], the figure is 89.6%; as for `CCCN(C(=O)C1CC1)c1nc2c(s1)CCc1c-2cnn1C` [CBK281930], 88.8%; as for `O=C(Nc1ccc2n(c1=O)C[C@H]1C[C@@H]2CN(C(=O)Cc2cccs2)C1)c1ccccc1` [CBK288709], 82.4%.
Same read-out and setting: the same measure for `CCNC(=O)N1CC(C)N(CCCCc2ccc(F)cc2)C(C)C1` (centres unmarked) [CBK025027C]: 89.9%; for `O=C(Cc1cc(F)c(F)c(F)c1)Nc1ccc2ncccc2c1` [CBK159811]: 93%; for `Cc1ccc(-c2nn(CCC#N)cc2C(=O)N2CCCCC2)cc1C` [CBK306131]: 94.4%.
On the same count and under the same terms, the same measure for `N=c1n(CCN2CCCCC2)c2ccccc2n1CC(O)COc1ccc(Cl)cc1` (centres unmarked) [CBK262512C]: 89.7%; for `C[S+]([O-])c1ccc(-c2cnc(NCC3CCN(C(=O)OC(C)(C)C)CC3)cn2)cc1` (centres unmarked) [CBK173723]: 83.4%.
For `O=C(c1cc(F)cc(F)c1)N1CCC(c2n[nH]c3ncccc23)CC1` [CBK284909], the viability at 28.5 h, 10 µM turned out to be 87.9%.
For the molecule `CCN1CCN(Cc2cnc(-c3ccccn3)nc2)CC1=O` [CBK306678], the viability at 28.5 h, 10 µM worked out at 99.9%.
On the same count and under the same terms, as for `CN(C)CCN1CCN(c2cncc(-c3cccnc3)n2)CC1` [CBK065416], the figure is 93.2%; as for `Cc1nc2c(C(=O)NCCCN3CCCC3=O)cnn2c(C)c1Cc1cccc(F)c1` [CBK162104], 101%.
For `O=C(NCCN1CCOCC1)c1cc(-c2cccc(Br)c2)nc2ccccc12` [CBK263625], the viability at 28.5 h, 10 µM is 90.2%.
For the molecule `O=C(Nc1ccc([N+](=O)[O-])cc1)Nc1ccc(N2CCOCC2)c2nonc12` [CBK266885], the viability at 28.5 h, 10 µM was 93.1%.
Same read-out and setting: the same measure for `CC1CC(NC(=S)NCc2csc3ccccc23)CC(C)(C)C1` (centres unmarked) [CBK013824]: 90.9%.
Consider `O=S(=O)(Nc1cc(Cl)nc(Cl)c1)c1ccc(-c2cc(C(F)(F)F)on2)s1` [CBK062215], for which the viability at 28.5 h, 10 µM stood at 90.9%.
As for `CN(CC(=O)Nc1ccccc1N1CCCC1)Cc1cnn(Cc2ccccc2)c1` [CBK295187], the viability at 28.5 h, 10 µM amounted to 105%.
As for `Fc1cccc(-c2nc(-c3cccnc3)no2)c1` [CBK270260], the viability at 28.5 h, 10 µM turned out to be 92.6%.
As for `Cc1cc(N2CCOCC2)nc2ccc(NC(=O)c3ccncc3)cc12` [CBK288587], the viability at 28.5 h, 10 µM stood at 99.3%.
Still for that read-out and setting: as for `COc1nc(SC)nc2[nH]ccc12` [CBK085861], the figure is 95%; as for `O=C(CN1C(=O)S/C(=C\c2ccccc2OCc2ccccc2)C1=O)c1ccc(Cl)cc1` [CBK264628], 92.5%.
Same read-out and setting: as for `CN1CCC(N2CCN(C(=O)NCCN3CCOCC3)CC2)CC1` [CBK155891], the figure is 93.8%; as for `CCOC(=O)c1c(NC(=O)CSc2nc[nH]n2)sc2c1CCCCC2` [CBK267231], 90.8%.
Same read-out and setting: as for `Cc1cc(C)nc(Nc2n[nH]c(-c3cccc4ccccc34)n2)n1` [CBK266451], the figure is 99.3%; as for `CCn1c(=N)c(C(=O)NCCOC)cc2c(=O)n3ccccc3nc21` [CBK287605], 89.5%; as for `CS(=O)(=O)N1CC2(CCN(Cc3ccc([N+](=O)[O-])cc3)CC2)c2ccccc21` [CBK084010], 104%.
For the molecule `Cc1cc(OCC(=O)O)c(C)c2c1CC[C@@H]([C@H](C)C(=O)N1CCC(O)CC1)C2` [CBK289433], the viability at 28.5 h, 10 µM amounted to 78.7%.
Take `CC(=O)N1CCCN(C(=O)c2ncoc2-c2ccc(F)cc2)CC1` [CBK282398]: the viability at 28.5 h, 10 µM is 85.2%.
`CC(C)Nc1nccnc1Sc1cccs1` [CBK089490]: the viability at 28.5 h, 10 µM worked out at 123%.
The same measure, in the same setting: as for `CCn1cc(-c2cncn2CCCOc2cccc(C)c2)cn1` [CBK281760], the figure is 90.5%.
Still for that read-out and setting: as for `CCN(CC)CCNC(=O)c1cc(=O)c2ccccc2o1` [CBK010691], the figure is 114%; as for `Nc1ccc(S(=O)(=O)O)c2cccc(S(=O)(=O)O)c12` [CBK261492N], 99.6%; as for `Cc1[nH]c2ccccc2c1C(c1ccccc1OCC(=O)O)c1c(C)[nH]c2ccccc12` [CBK266038], 109%.
Still for that read-out and setting: the same measure for `c1ccc(NCCOc2cncc(N3CCCC3)n2)cc1` [CBK115670]: 101%; for `O=C(NC(=S)Nc1ccc2oc(-c3ccncc3)nc2c1)c1ccccc1[N+](=O)[O-]` [CBK264106]: 87.3%; for `Cc1cccc(-c2ocnc2C(=O)NC(C)c2ccccn2)c1` (centres unmarked) [CBK282427]: 87.4%.
On to `CC(C)=NNC(=O)CSc1nc(N2CCOCC2)c2ccccc2n1` [CBK009114], for which the viability at 28.5 h, 10 µM worked out at 85.2%.
Still for that read-out and setting: the same measure for `Cc1noc(C)c1CC(=O)NC(CN1CCCCC1)c1ccccc1` (centres unmarked) [CBK281507]: 89.1%.
On the same count and under the same terms, as for `CCCn1nc(C)c(-c2cncn2CCn2nc(C)c(C)c2C)c1C` [CBK281444], the figure is 83.5%; as for `Cc1nn(C)cc1S(=O)(=O)N1CCC(c2cccc(Cc3ccccc3Cl)n2)CC1` [CBK286115], 95.3%.
Turning to `CCCN1CC(NS(=O)(=O)c2cc(OC)c(C)cc2OC)CC1=O` (centres unmarked) [CBK307036], the viability at 28.5 h, 10 µM came to 75.4%.
Regarding `O=C(Nc1cc2ccccc2c(Br)n1)C(F)(F)F` [CBK063301], the viability at 28.5 h, 10 µM was determined as 82%.
Take `O=C(c1ccc(O)nc1)N1CCN(Cc2cc(=O)n3ccsc3n2)CC1` [CBK306098]: the viability at 28.5 h, 10 µM is 86.3%.
With `CC(=O)NCCn1cc2c(n1)[C@H]1CN(C(=O)C3CCC3)C[C@H]1CC2` [CBK284584], the viability at 28.5 h, 10 µM was 107%.
Same read-out and setting: the same measure for `COc1ccc(C(=O)C2=C(O)C(=O)N(CCCN(C)C)C2c2ccncc2)cc1Cl` (centres unmarked) [CBK266529]: 109%.
Still for that read-out and setting: as for `Cc1nccn1CCCn1cncc1-c1ccc2c(c1)CCC(C)N2C` (centres unmarked) [CBK281811], the figure is 91%; as for `Cc1ccc(CCn2nc(C)cc2C)cn1` [CBK021375], 104%.
On the same count and under the same terms, the same measure for `Cc1cc(N2CCC(N3CCN(C)CC3)CC2)nc(N)n1` [CBK167964]: 94.3%; for `CC(NC(=O)N(CCCN)Cc1c[nH]c(-c2ccccc2)n1)c1cccc2ccccc12` (centres unmarked) [CBK034672C]: 119%.
Turning to `Oc1ccc2cc(-c3ccc(OC(F)(F)F)cc3)cnc2n1` [CBK081300], the viability at 28.5 h, 10 µM was found to be 32.8%.

The same data set, now with this note: human, hela cells, % viability, bulk resorufin, single well.
`CC[C@H](N)Cn1nc(-c2cccs2)oc1=O` [CBK282393]: the viability at 28.5 h, 10 µM is 82.6%.
On the same count and under the same terms, as for `CC1CC1C(=O)N1CCC(C#N)(c2ccccc2)CC1` (centres unmarked) [CBK091402], the figure is 99%.

The values are drawn from article PMC12040169 (PLOS Biology, 2025).
